Consider one substance from patent US20260091097A1, “COMBINATION TREATMENT REGIMES FOR TREATING CANCER” (Barinthus Biotherapeutics North America, Inc., priority 2022, published 2026).

What all share (assay type): in vivo, mouse
In one experiment the test system is MC38 tumors. As to the kind of experiment: Therapeutic MC38 tumor model, SNP-7/8a prime day 7 and boost day 14 together with anti-PD-L1. The conditions noted are these: SNP-SC (Reps1) prime, IV boost 7 days later without tumor antigen. Here is the method: For each tumor implantation, a frozen cell aliquot was thawed and cultured in MC38 media at 37° C. and 5% CO2, passaged once and collected using trypsin EDTA (Gibco). Then, […] in sterile PBS per mouse were implanted subcutaneously on the right flank. Tumors were measured twice a week using digital calipers. Tumor volume was estimated using the formula: (tumor volume=short×short×long/2). Animals were killed when tumors surpassed 1,000 mm^3.
Mice were implanted with MC38 tumors on the subcutaneous flank and were treated on day 7 (prime) and day 14 (boost) with SNP-7/8a containing Reps1, an MC38 neoAg, together with anti-PD-L1 (FIG. 1A). […] To confirm and extend these findings in a different tumor model, mice were implanted with TC-1 tumors and treated with SNP-7/8a containing HPV E6 antigen.
To assess the requirement for antigen at the time of boost, mice were primed with SNP-SC containing Reps1, followed by SNP-IV containing an irrelevant antigen (FIG. 1E).

Experiment [1] deals with neoAg-specific CD8+ T cells. As to the kind of experiment: Flow cytometry of tetramer+ CD8+ T cells after SNP vaccination. The conditions noted are these: IV administration after SNP-SC prime, still with anti-tumor efficacy. The protocol: For T cell tetramer analysis, cells were assessed for viability with LIVE/DEAD Fixable Blue Dead Cell Stain Kit (Invitrogen) in PBS containing 50 nM dasatinib (STEMCELL Technologies) for 30 min at room temperature. Samples were then washed and blocked with anti-CD16/CD32 (BD Biosciences). Cells were then stained with fluorescently conjugated tetramer in cell staining buffer (PBS and 2% FCS) containing 50 nM dasatinib to enhance staining. Cells were simultaneously stained with the following surface antibodies to: CD8 (clone 53-6.7), PD-1 (clone 29F.A12), Tim-3 (clone RMT3-23), CD44 (clone IM7), CD39 (clone Duha59), and NKG2A (clone 16A11) purchased from BioLegend and CD4 (clone RM4-4) purchased from BD Biosciences. After a 1-h incubation at 4° C., cells were washed twice in cell staining buffer, fixed and permeabilized using the FoxP3 transcription factor staining buffer set (eBioscience). […]
To assess whether there are differences in the magnitude of neoAg-specific CD8^+ T cells after SNP-SC or SNP-IV boost, whole blood was sampled on day 21, a week after the boost and measured the tetramer^+ population by flow cytometry (FIG. 1G). […]
As markers of exhaustion and antigen experience on CD8^+ T cells are important for improving the therapeutic effects of immune checkpoint blockade, the expression of PD-1, TIM-3 and NKG2A post vaccination were assessed. […]

Another experiment concerns cDC1s. As to the kind of experiment: Flow cytometry of DC numbers and maturation after vaccination. The conditions noted are these: IV route; comparable to SNP-IV. The protocol: For the mononuclear phagocyte uptake analysis, cells were assessed for viability with the LIVE/DEAD Fixable Blue Dead Cell Stain Kit for 10 min at room temperature. After FcR blocking, cells were stained for 20 minutes at room temperature with the following surface antibodies: NK1.1 (clone PK136), CD19 (clone 1D3), CD3 (clone 145-2C11), Ly6G (clone 1A8), CD45 (clone 30-F11), Siglec-H (clone 440c), CD86 (clone GL1), CD11c (clone L3), CD80 (clone 16-10A1), B220 (clone RA3-6B2), CD64 (clone X54-5/7.1), CD11b (clone MI/70) and Ly6C (clone AL-21) purchased from BD Biosciences, CCR7 (clone 4B12), MHC class II (I-A/I-E, clone M5/114.15.2), CD169 (clone 3D6.112) and XCR1 (clone ZET) purchased from BioLegend, and CD172a (clone P84) from Thermo Fisher Scientific. The stain was washed off and cells were then fixed in 0.5% PFA in PBS until they were acquired on an LSRFortessa X50 (BD Biosciences) using the FACSDiva software v8.0.1 (BD Biosciences).
Given the systemic distribution of vaccine after SNP-IV but not SNP-SC, the levels of pro-inflammatory cytokines in the sera of mice were assessed at 6 hours after vaccination (FIG. 3F). High levels of systemic IFNα and IL-12 were measured by ELISAs after SNP-IV, especially at the higher dose of 32 nmol that is used in the therapeutic studies, compared to SNP-SC (FIG. 3F). […]
In general terms: Flow cytometry measures light scatter and fluorescence of single cells or particles in a stream.

As to polyIC:LC, the Tumor growth result with MC38 tumors was “significantly mediate tumor regression and prolong survival”. Besides, the “CD8+ T cell responses compared to the other vaccinated groups” value in experiment [1] is listed as “ten-fold lower”. The “DC maturation in the spleen and tumor-draining LN” value in the experiment with cDC1s was “able to induce DC maturation”.
